For nine compounds, change in vivo and inhibition in vivo results are on record in patent publication US7179823B1, “5-membered n-heterocyclic compounds with hypoglycemic and hypolipidemic activity” (Takeda Pharmaceutical Company Limited, priority 1999, dated 2007).

The test system of the assay is KKA^y mice. Kind of assay: Total cholesterol lowering action and plasma anti-arteriosclerosis index-enhancing action in mice. The class given is in vivo. The settings on record: Mus musculus, po, 96 h, four days, non-treatment group taken as 100%; for change in vivo at 0.01 % / inhibition in vivo at 0.01 %: 0.01% in powdery diet; for change in vivo at 0.005 % / inhibition in vivo at 0.005 %: 0.005% in powdery diet. The source says: Total Cholesterol Lowering Action and Plasma Anti-Arteriosclerosis Index-Enhancing Action in Mice
Test compounds were mixed in a powdery diet (CE-2, Japan Clea) at the concentration of 0.01% (compounds of Examples 12, 30, 89), 0.005% (compounds of Examples 38, 40, 44, 181, 184, 262, 283), or 0.001% (compounds of Examples 9, 156, 167, 172, 174, 176, 189), and freely given to KKA^y mice (9 to 12 weeks old, 5 mice per group), a model of obese and type 2 diabetes mellitus, for four days. During this period, water was given freely. Blood was sampled from orbital venous plexus and plasma was separated. Total cholesterol levels were determined by using L type Wako Cholesterol (Wako Pure Chemical Industries, Ltd.). Precipitation reagent for apoB containing lipoprotein was added to a part of the plasma to precipitate non-HDL lipoprotein, and cholesterol (HDL cholesterol) in the resulting supernatant was determined. The plasma anti-arteriosclerosis index [(HDL cholesterol/total cholesterol)×100] was calculated by using these cholesterol levels.
In the Table, “Total cholesterol lowering action (%)” represents the percent reduction (%) of total cholesterol level in the treatment group, when the total cholesterol level in the non-treatment group is taken as 100%. “Plasma anti-arteriosclerosis index-enhancing action (%)” represents the percent increase (%) of plasma anti-arteriosclerosis index in the treatment group, when the plasma anti-arteriosclerosis index in the non-treatment group is taken as 100%.

[1] abbreviates: percent increase of [(HDL cholesterol/total cholesterol)×100], read-out: Plasma anti-arteriosclerosis index-enchancing action (%).
Setting [2] is: percent reduction of plasma total cholesterol.

Molecules are shown by their SMILES.

On to `Cc1oc(-c2cccs2)nc1COc1ccc(Cn2cc(CCC(=O)O)c(-c3ccccc3)c2)cc1` [Example 9, 3-[1-[4-[5-methyl-2-(2-thienyl)-4-oxazolylmethoxy]benzyl]-4-phenyl-3-pyrrolyl]propionic acid], for which the change in vivo at 0.001 % (0.001% in powdery diet, percent increase of [(HDL cholesterol/total cholesterol)×100], read-out: Plasma anti-arteriosclerosis index-enchancing action (%)) turned out to be 12%. Also, the inhibition in vivo (usually the share of the control response that was lost under treatment) at 0.001 % (0.001% in powdery diet, percent reduction of plasma total cholesterol) was 16%.

For the compound `O=C(O)CCc1cn(Cc2ccc(OCc3cccnc3)cc2)cc1-c1ccccc1` [Example 12, 3-[4-phenyl-1-[4-(3-pyridylmethoxy)benzyl]-3-pyrrolyl]propionic acid], the change in vivo at 0.01 % under setting [1] worked out at 24%. Moreover, under setting [2], the inhibition in vivo at 0.01 % worked out at 15%.

For the compound `O=C(O)CCc1cn(Cc2ccc(OCc3csc(-c4ccccc4)n3)cc2)cc1-c1ccccc1` [Example 30, 3-[4-phenyl-1-[4-(2-phenyl-4-thiazolylmethoxy)benzyl]-3-pyrrolyl]propionic acid], under setting [1], the change in vivo at 0.01 % is 16%. The inhibition in vivo at 0.01 % under setting [2] came out at 27%.

As for `O=C(O)CCc1cn(Cc2ccc(OCc3csc(-c4ccco4)n3)cc2)cc1-c1ccccc1` [Example 38, 3-[1-[4-[2-(2-furyl)-4-thiazolylmethoxy]benzyl]-4-phenyl-3-pyrrolyl]propionic acid], the change in vivo at 0.005 % under setting [1] stood at 21%. Also, under setting [2], the inhibition in vivo at 0.005 % stood at 24%.

Turning to `O=C(O)CCc1cn(Cc2ccc(OCc3csc(-c4cccs4)n3)cc2)cc1-c1ccccc1` [Example 40, 3-[4-phenyl-1-[4-[2-(2-thienyl)-4-thiazolylmethoxy]benzyl]-3-pyrrolyl]propionic acid], under setting [1], the change in vivo at 0.005 % came to 22%. Also, the inhibition in vivo at 0.005 % under setting [2] was 19%.

With `O=C(O)CCc1cn(Cc2ccc(OCc3coc(-c4ccccc4)n3)cc2)cc1-c1ccccc1` [Example 44, 3-[4-phenyl-1-[4-(2-phenyl-4-oxazolylmethoxy]benzyl]-3-pyrrolyl]propionic acid], the change in vivo at 0.005 % under setting [1] turned out to be 21%. Moreover, the inhibition in vivo at 0.005 % under setting [2] was determined as 23%.

As for `Cc1oc(-c2ccccc2)nc1COc1ccc(Cn2cc(CCC(=O)O)c(-c3ccccc3)n2)cc1` [Example 89, 3-[1-[4-(5-methyl-2-phenyl-4-oxazolylmethoxy)benzyl]-3-phenyl-1H-pyrazol-4-yl]propionic acid], the change in vivo at 0.01 % under setting [1] came to 15%. For the same compound, the inhibition in vivo at 0.01 % under setting [2] is 8%.

With `CCOc1nn(Cc2ccc(OCc3nc(-c4ccccc4)oc3C)nc2)cc1CC(=O)O` [Example 262, 3-ethoxy-1-[6-(5-methyl-2-phenyl-4-oxazolylmethoxy)-3-pyridylmethyl]-1H-pyrazol-4-ylacetic acid], the change in vivo at 0.005 % under setting [1] turned out to be 9%. In addition, the inhibition in vivo at 0.005 % under setting [2] was 22%.

Take `Cc1oc(-c2ccccc2)nc1COc1ccc(Cn2cc(CCC(=O)O)c(-c3ccccc3)n2)cn1` [Example 283, 3-[1-[2-(5-methyl-2-phenyl-4-oxazolylmethoxy)-5-pyridylmethyl]-3-phenyl-1H-pyrazol-4-yl]propionic acid]: the change in vivo at 0.005 % under setting [1] worked out at 19%. The inhibition in vivo at 0.005 % under setting [2] came out at 24%.
